# Experimental data published in US10105323B2, “Pharmaceutical dosage form for immediate release of an indolinone derivative” (Boehringer Ingelheim International GmbH, priority 2008, dated 2018).
# Where two headings read alike, the source gives them in different places.
# Columns and labels:
# [1] = Phase I trials in cancer patients, dose proportionality of plasma exposure; format: in vivo, human; conditions: single dose and steady state, qd and bid dosing, visual inspection
# From the text: However, in three Phase I trials in cancer patients with various advanced solid tumors there was no sign for a deviation from a dose proportional increase in AUC and Cmax of the active substance observed through visual inspection neither after single dose nor at steady state for once and twice daily dosing (FIGS. 9 and 10). […] There was no deviation from dose-proportionality observed for drug plasma concentrations measured before drug administration at steady state (Cpre,ss) in cancer patients in various clinical trials, found through visual inspection.
# [2] = Phase 2 monotherapy trials in NSCLC or HRPC patients, pre-dose plasma concentrations; format: in vivo, human; conditions: 150 and 250 mg twice daily, soft gelatin capsule
# [3] = Stress, long-term and accelerated stability studies of soft gelatin capsule systems; format: physicochemical; conditions: 1 month at 70° C., long-term (3 years), accelerated (6 months)
# From the text: An advantage of such soft gelatin capsule containing a lipid suspension is that the water uptake into the formulation is very unlikely. The dosage form is divided into three different compartments, namely (a) a hydrophilic capsule shell and (b) the hydrophobic carrier system in which (c) the slightly hygroscopic powder of active substance is suspended. Due to ambient moisture the content of water may vary within these different compartments. It will migrate by diffusion until an equilibrium state is reached. The water content may affect different properties of the drug product, such as the chemical stability of the active substance (predominantly via hydrolysis), the dissolution of the active substance, or the elasticity of the capsule shell. The water uptake in the present system is primarily in the capsule shell. This can be shown by water vapour sorption experiments as well as by the correlation of the mass gain with the softening of the capsule (shown in FIG. 1). […] This is confirmed by the stress stability studies of, for example, 1 month at 70° C., and by long-term (3 years) and accelerated (6 months) stability study results for the systems in accordance with the present invention.
# [4] = human, in vivo
structure (smiles),measurement,setting,value
"COC(=O)c1ccc2c(c1)NC(=O)/C2=C(\Nc1ccc(N(C)C(=O)CN2CCN(C)CC2)cc1)c1ccccc1 [active substance, 3-Z-[1-(4-(N-((4-methyl-piperazin-1-yl)-methylcarbonyl)-N-methyl-amino)-anilino)-1-phenyl-methylene]-6-methoxycarbonyl-2-indolinone-monoethanesulphonate]","gMean AUCτ,ss versus dose",[1],increased in a dose-proportional manner
same,"gMean Cmax,ss versus dose",[1],increased in a dose-proportional manner
same,pre-dose plasma concentrations at steady state versus dose,[2],no obvious deviation from a dose proportional increase
same,effect of water uptake on chemical stability,[3],not affect the chemical stability
same,time to reach maximum plasma concentration (median value),[4],2 h
same,time to reach maximum plasma concentration (range),[4],0.75 to 6 h
same,plasma concentration of the active substance at maximum (gMean value),[4]; 150 mg,about 9 ng/mL
same,plasma concentration as % of the maximum plasma concentration,[4]; 24 h,about 15%
same,plasma concentration as % of the maximum plasma concentration,[4]; 48 h,7-8%
